Test results from US12258355B2, “Probes for imaging huntingtin protein” (CHDI Foundation, Inc., priority 2014, dated 2025).

Biological target: T1, Q46 protein aggregates (Homo sapiens, UniProt P42858)
T1 construct: fused on or other part: GST at the N-terminus, cut off with thrombin before the test to start aggregation; The wells held aggregated Q46 without GST
Experiment: Q46 radioligand binding assay (RBA)
Conditions: 10 nM ligand [3H3]MK-3328
Experimental: Q46 Radioligand Binding Assay
For radioligand binding assays (RBA) GST-Q46 protein was generated based on a previous publication (Scherzinger et al. Cell, Vol. 90, 549-558, Aug. 8, 1997). For experiments 33 μM GST-Q46 was incubated with 150 μg/mL thrombin in assay buffer (150 mM NaCl, 50 mM Tris pH 8.0) and 2 mM CaCl2 for 16 hours at 37° C. Aggregated Q46 was pelleted by centrifugation for 5 minutes at 13,000 rpm in a bench top centrifuge and re-dissolved in the same volume of assay buffer. Test compounds were prepared by titration in DMSO at 11 concentrations from 33 μM to 1 nM. For the RBA, Q46 protein aggregates and test compounds were pre-incubated in assay buffer for 20 minutes at room temperature, in 140 μL/well in a 96-well plate (pp, round bottom). Then, ligand was added in 10 μL/well and incubated for 60 minutes at 37° C. Final assay concentrations were 1 μM to 30 pM test compound, 5 μM Q46 protein (equivalent monomer concentration) and 10 nM ligand [^3H3]MK-3328 (Harrision et al., ACS Med. Chem. Lett., 2 (2011), pp 498-502). Samples were transferred onto GF/B filter plates and washed 2× with 200 μL PBS using a Filtermate Harvester. After drying filter plates for 1 hour at 37° C., the back of the plates were sealed with foil and 30 μL/well scintillation fluid (Packard MicroScint 40) added, incubated for 15 minutes in the dark and counted in a TopCount reader. For analysis, replicate data from independent assay plates were normalized towards 0% and 100% inhibition using control wells of vehicle (0% inhibition) and 3 μM unlabelled MK-3328 (100% inhibition). IC50 values were determined with a sigmoidal inhibition model with four variables (top, bottom, slope, IC50) in a global fit using the normalized replicate data.

T1 sequence (P42858 with tags, fused parts or gaps with the stated changes, form open): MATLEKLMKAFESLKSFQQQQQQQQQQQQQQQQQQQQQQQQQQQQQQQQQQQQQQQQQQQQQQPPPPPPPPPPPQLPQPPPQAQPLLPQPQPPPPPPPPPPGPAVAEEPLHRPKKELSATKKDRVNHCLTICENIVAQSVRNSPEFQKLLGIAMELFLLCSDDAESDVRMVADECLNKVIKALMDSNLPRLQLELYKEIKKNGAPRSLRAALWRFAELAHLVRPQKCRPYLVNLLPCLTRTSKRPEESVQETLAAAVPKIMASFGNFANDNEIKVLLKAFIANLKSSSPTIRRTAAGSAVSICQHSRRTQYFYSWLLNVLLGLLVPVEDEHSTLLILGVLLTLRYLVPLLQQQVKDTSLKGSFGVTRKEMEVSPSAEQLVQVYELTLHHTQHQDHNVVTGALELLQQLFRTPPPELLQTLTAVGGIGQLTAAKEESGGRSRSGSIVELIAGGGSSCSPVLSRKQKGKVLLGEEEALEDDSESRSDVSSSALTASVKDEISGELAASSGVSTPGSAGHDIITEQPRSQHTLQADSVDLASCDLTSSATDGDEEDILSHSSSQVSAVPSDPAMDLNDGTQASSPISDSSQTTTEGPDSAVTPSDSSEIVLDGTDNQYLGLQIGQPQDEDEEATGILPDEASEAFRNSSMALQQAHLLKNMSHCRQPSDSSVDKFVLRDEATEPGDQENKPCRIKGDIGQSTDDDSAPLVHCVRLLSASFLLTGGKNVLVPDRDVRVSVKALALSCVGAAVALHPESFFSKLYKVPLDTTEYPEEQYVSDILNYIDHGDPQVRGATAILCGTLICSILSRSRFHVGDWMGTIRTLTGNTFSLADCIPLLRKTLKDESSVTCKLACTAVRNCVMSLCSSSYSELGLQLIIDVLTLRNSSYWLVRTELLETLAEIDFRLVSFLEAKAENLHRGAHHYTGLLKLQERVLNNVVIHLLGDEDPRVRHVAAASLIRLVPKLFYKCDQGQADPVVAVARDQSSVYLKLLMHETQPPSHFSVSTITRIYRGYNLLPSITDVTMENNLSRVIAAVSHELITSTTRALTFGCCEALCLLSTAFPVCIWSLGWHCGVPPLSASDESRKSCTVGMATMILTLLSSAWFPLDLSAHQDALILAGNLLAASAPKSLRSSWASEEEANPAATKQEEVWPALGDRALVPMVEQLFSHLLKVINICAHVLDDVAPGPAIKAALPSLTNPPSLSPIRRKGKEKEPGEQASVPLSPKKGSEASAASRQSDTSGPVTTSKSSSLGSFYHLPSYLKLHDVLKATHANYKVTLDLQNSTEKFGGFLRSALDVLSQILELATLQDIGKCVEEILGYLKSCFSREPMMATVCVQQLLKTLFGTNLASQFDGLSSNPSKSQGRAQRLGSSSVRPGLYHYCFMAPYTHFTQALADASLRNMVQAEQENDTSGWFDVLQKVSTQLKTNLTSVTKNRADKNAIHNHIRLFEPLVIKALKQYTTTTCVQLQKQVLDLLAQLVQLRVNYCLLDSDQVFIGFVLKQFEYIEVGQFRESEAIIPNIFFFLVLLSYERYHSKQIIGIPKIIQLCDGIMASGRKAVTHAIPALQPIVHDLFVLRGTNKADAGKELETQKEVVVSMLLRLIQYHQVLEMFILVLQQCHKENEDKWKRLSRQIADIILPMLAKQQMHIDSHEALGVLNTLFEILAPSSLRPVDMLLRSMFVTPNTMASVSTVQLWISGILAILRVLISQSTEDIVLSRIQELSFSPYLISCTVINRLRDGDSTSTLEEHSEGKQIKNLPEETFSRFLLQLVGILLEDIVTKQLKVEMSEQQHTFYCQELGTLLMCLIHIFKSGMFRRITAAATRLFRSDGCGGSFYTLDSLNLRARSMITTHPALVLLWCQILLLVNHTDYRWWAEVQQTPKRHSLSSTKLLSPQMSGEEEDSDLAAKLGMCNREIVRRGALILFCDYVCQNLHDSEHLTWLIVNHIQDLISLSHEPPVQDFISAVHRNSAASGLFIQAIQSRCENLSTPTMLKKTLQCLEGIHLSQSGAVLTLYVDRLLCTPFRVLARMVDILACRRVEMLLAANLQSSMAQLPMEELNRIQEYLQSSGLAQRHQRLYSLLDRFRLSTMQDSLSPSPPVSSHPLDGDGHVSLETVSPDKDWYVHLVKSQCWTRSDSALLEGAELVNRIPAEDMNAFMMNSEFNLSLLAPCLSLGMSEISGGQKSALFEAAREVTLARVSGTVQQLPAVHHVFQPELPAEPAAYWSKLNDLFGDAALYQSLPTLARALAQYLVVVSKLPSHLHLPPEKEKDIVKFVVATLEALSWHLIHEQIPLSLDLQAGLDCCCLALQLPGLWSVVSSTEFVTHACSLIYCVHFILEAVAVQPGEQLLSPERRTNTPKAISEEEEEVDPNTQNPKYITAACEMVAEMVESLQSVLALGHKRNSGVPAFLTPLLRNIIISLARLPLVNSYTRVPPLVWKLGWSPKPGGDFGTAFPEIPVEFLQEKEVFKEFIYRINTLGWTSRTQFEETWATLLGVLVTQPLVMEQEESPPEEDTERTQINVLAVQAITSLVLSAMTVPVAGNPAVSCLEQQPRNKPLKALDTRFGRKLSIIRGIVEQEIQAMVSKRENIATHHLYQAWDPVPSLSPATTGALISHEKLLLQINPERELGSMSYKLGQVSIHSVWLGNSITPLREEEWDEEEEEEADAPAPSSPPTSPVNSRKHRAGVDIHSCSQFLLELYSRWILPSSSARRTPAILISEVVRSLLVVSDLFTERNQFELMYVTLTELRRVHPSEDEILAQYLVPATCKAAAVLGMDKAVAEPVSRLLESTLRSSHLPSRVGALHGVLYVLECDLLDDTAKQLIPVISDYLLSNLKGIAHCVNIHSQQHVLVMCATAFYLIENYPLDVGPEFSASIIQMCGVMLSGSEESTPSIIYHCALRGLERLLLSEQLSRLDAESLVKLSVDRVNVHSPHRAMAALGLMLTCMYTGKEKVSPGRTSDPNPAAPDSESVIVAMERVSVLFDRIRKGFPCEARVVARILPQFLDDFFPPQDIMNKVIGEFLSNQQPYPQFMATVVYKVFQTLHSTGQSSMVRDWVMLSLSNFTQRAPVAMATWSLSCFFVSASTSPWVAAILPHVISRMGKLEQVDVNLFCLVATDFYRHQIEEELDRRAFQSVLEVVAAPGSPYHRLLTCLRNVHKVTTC

Row | IC50 | SMILES
1 | < 0.1 µM | COc1ccc(COc2ccc3oc(-c4cccc(CN(C)C)c4)nc3c2)nc1 [[(3-{5-[(5-methoxypyridin-2-yl)methoxy]-1,3-benzoxazol-2-yl}phenyl)methyl]dimethylamine]
2 | < 0.1 µM | CNCc1cncc(-c2nc3cc(OCc4ccc(OC)cn4)ccc3o2)c1 [[(5-{5-[(5-methoxypyridin-2-yl)methoxy]-1,3-benzoxazol-2-yl}pyridin-3-yl)methyl](methyl)amine]
3 | < 0.1 µM | N#Cc1cnccc1-c1cc2cc(Oc3cccnc3)ccc2o1 [4-[5-(pyridin-3-yloxy)-1-benzofuran-2-yl]pyridine-3-carbonitrile]
4 | < 0.1 µM | COc1ccc(COc2ccc3oc(C4Cc5ccccc5O4)nc3c2)nc1 (stereo not drawn) [2-(2,3-dihydro-1-benzofuran-2-yl)-5-[(5-methoxypyridin-2-yl)methoxy]-1,3-benzoxazole]
5 | < 0.1 µM | COc1ccc(-c2ccc3oc(-c4cccnc4)nc3c2)nn1 [5-(6-methoxypyridazin-3-yl)-2-(pyridin-3-yl)-1,3-benzoxazole]
6 | 0.1 to 0.5 µM | O=C(Cc1ccc2oc(-c3cccnc3)nc2c1)c1ccccn1 [1-(pyridin-2-yl)-2-[2-(pyridin-3-yl)-1,3-benzoxazol-5-yl]ethan-1-one]
7 | < 0.1 µM | O=C(Nc1ccc2oc(-c3cccnc3)nc2c1)c1cnc2ccccc2n1 [N-[2-(pyridin-3-yl)-1,3-benzoxazol-5-yl]quinoxaline-2-carboxamide]
8 | < 0.1 µM | O=C(Nc1ccc2oc(-c3cccnc3)nc2c1)c1cc2ccccc2o1 [N-[2-(pyridin-3-yl)-1,3-benzoxazol-5-yl]-1-benzofuran-2-carboxamide]
9 | < 0.1 µM | COc1ccc(COc2ccc3oc(N4CCn5cncc5C4)nc3c2)nc1 [2-{5H,6H,7H,8H-imidazo[1,5-a]pyrazin-7-yl}-5-[(5-methoxypyridin-2-yl)methoxy]-1,3-benzoxazole]
10 | < 0.1 µM | COc1cnc(COc2ccc3oc(-c4cccnc4)nc3c2)cn1 [5-[(5-methoxypyrazin-2-yl)methoxy]-2-(pyridin-3-yl)-1,3-benzoxazole]
11 | < 0.1 µM | COc1ccc(COc2ccc3oc([C@H]4Cc5ccccc5O4)nc3c2)nc1 [2-[(2R)-2,3-dihydro-1-benzofuran-2-yl]-5-[(5-methoxypyridin-2-yl)methoxy]-1,3-benzoxazole]
12 | < 0.1 µM | COc1ccc(C(=O)Nc2ccc3oc(-c4ccc(=O)n(C)n4)nc3c2)nc1 [5-methoxy-N-[2-(1-methyl-6-oxo-1,6-dihydropyridazin-3-yl)-1,3-benzoxazol-5-yl]pyridine-2-carboxamide]
13 | < 0.1 µM | COc1ccc(COc2ccc3oc(N4CCc5cccnc5C4)nc3c2)nc1 [7-{5-[(5-methoxypyridin-2-yl)methoxy]-1,3-benzoxazol-2-yl}-5,6,7,8-tetrahydro-1,7-naphthyridine]
14 | < 0.1 µM | O=C(Nc1ccc2oc(-c3cccnc3)nc2c1)c1cnc(-c2ccccc2)nc1 [2-phenyl-N-[2-(pyridin-3-yl)-1,3-benzoxazol-5-yl]pyrimidine-5-carboxamide]
15 | < 0.1 µM | COc1ccc(COc2ccc3oc(-c4cc5ccccc5o4)nc3c2)nc1 [2-(1-benzofuran-2-yl)-5-[(5-methoxypyridin-2-yl)methoxy]-1,3-benzoxazole]
16 | < 0.1 µM | CNc1ccc(-c2nc3cc(OCc4ccc(OC)cn4)ccc3o2)cn1 [5-{5-[(5-methoxypyridin-2-yl)methoxy]-1,3-benzoxazol-2-yl}-N-methylpyridin-2-amine]
17 | < 0.1 µM | COc1ccc(C#Cc2cnc3oc(-c4cccnc4)nc3c2)cc1 [3-{6-[2-(4-methoxyphenyl)ethynyl]-[1,3]oxazolo[5,4-b]pyridin-2-yl}pyridine]
18 | < 0.1 µM | c1cncc(-c2nc3cc(Nc4ccncn4)ccc3o2)c1 [2-(pyridin-3-yl)-N-(pyrimidin-4-yl)-1,3-benzoxazol-5-amine]
19 | < 0.1 µM | COc1ccc(CNc2ccc3oc(-c4cccnc4)nc3c2)cc1 [N-[(4-methoxyphenyl)methyl]-2-(pyridin-3-yl)-1,3-benzoxazol-5-amine]
20 | > 0.05 µM | COc1ccc(C(Nc2cnc3oc(-c4cccnc4)nc3c2)C(F)(F)F)cc1 (stereo not drawn) [2-(pyridin-3-yl)-N-[2,2,2-trifluoro-1-(4-methoxyphenyl)ethyl]-[1,3]oxazolo[5,4-b]pyridin-6-amine]
21 | < 0.1 µM | COc1ccc(COc2ccc3oc(-c4ccnc(C)c4)nc3c2)nc1 [5-[(5-methoxypyridin-2-yl)methoxy]-2-(2-methylpyridin-4-yl)-1,3-benzoxazole]

Row | IC50 | SMILES
22 | < 0.1 µM | COc1cnc(-c2ccc3oc(-c4cccnc4)nc3c2)cn1 [5-(5-methoxypyrazin-2-yl)-2-(pyridin-3-yl)-1,3-benzoxazole]
23 | < 0.1 µM | CC(=O)Oc1ccc(C(=O)Nc2ccc3oc(-c4ccc(Cl)cc4)nc3c2)cc1 [4-{[2-(4-chlorophenyl)-1,3-benzoxazol-5-yl]carbamoyl}phenyl acetate]
24 | < 0.1 µM | O=C(Nc1ccc2oc(-c3cccnc3)nc2c1)c1ccc(Oc2ccccc2)nc1 [6-phenoxy-N-[2-(pyridin-3-yl)-1,3-benzoxazol-5-yl]pyridine-3-carboxamide]
25 | 0.1 to 0.5 µM | Cn1nc(COc2cnc3oc(-c4cccnc4)nc3c2)ccc1=O [2-methyl-6-({[2-(pyridin-3-yl)-[1,3]oxazolo[5,4-b]pyridin-6-yl]oxy}methyl)-2,3-dihydropyridazin-3-one]
26 | < 0.1 µM | COc1ccc2c(c1)CN(c1ccc3oc(-c4cccnc4)nc3c1)C2=O [5-methoxy-2-[2-(pyridin-3-yl)-1,3-benzoxazol-5-yl]-2,3-dihydro-1H-isoindol-1-one]
27 | < 0.1 µM | COc1ccc(COc2cnc3oc(-c4cccnc4)nc3c2)cn1 [3-{6-[(6-methoxypyridin-3-yl)methoxy]-[1,3]oxazolo[5,4-b]pyridin-2-yl}pyridine]
28 | < 0.1 µM | Oc1ccc(COc2ccc3oc(-c4cccnc4)nc3c2)nc1 [6-({[2-(pyridin-3-yl)-1,3-benzoxazol-5-yl]oxy}methyl)pyridin-3-ol]
29 | 0.1 to 0.5 µM | COc1ccc2c(=O)n(-c3ccc4oc(-c5cccnc5)nc4c3)ccc2c1 [6-methoxy-2-[2-(pyridin-3-yl)-1,3-benzoxazol-5-yl]-1,2-dihydroisoquinolin-1-one]
30 | < 0.1 µM | C(#Cc1cnc2oc(-c3cccnc3)nc2c1)c1cccnc1 [3-{6-[2-(pyridin-3-yl)ethynyl]-[1,3]oxazolo[5,4-b]pyridin-2-yl}pyridine]
31 | < 0.1 µM | COc1ccc(COc2cnc3oc(-c4ccc(=O)n(C)n4)nc3c2)nc1 [6-{6-[(5-methoxypyridin-2-yl)methoxy]-[1,3]oxazolo[5,4-b]pyridin-2-yl}-2-methyl-2,3-dihydropyridazin-3-one]
32 | < 0.1 µM | Brc1cnccc1-c1nc2ccc(OCCN3CCOCC3)cc2s1 [2-(3-bromopyridin-4-yl)-6-[2-(morpholin-4-yl)ethoxy]-1,3-benzothiazole]
33 | < 0.1 µM | COc1ccc(COc2ccc3oc(-c4ccc5ccccc5n4)nc3c2)nc1 [2-{5-[(5-methoxypyridin-2-yl)methoxy]-1,3-benzoxazol-2-yl}quinoline]
34 | 0.1 to 0.5 µM | c1ccc(OCCOc2ccc3oc(-c4cccnc4)nc3c2)nc1 [5-[2-(pyridin-2-yloxy)ethoxy]-2-(pyridin-3-yl)-1,3-benzoxazole]
35 | < 0.1 µM | COCCOc1cncc(-c2nc3cc(OCc4ccc(OC)cn4)ccc3o2)c1 [2-[5-(2-methoxyethoxy)pyridin-3-yl]-5-[(5-methoxypyridin-2-yl)methoxy]-1,3-benzoxazole]
36 | < 0.1 µM | CNC(=O)c1ccc(-c2nc3cc(OCc4ccc(OC)cn4)cnc3o2)cn1 [5-{6-[(5-methoxypyridin-2-yl)methoxy]-[1,3]oxazolo[5,4-b]pyridin-2-yl}-N-methylpyridine-2-carboxamide]
37 | < 0.1 µM | COc1ncc(C(=O)Nc2ccc3oc(-c4cccc(C)c4)nc3c2)cn1 [2-methoxy-N-[2-(3-methylphenyl)-1,3-benzoxazol-5-yl]pyrimidine-5-carboxamide]
38 | < 0.1 µM | COc1ccc(COc2ccc3oc(-c4ccncc4)nc3c2)nc1 [5-[(5-methoxypyridin-2-yl)methoxy]-2-(pyridin-4-yl)-1,3-benzoxazole]
39 | < 0.1 µM | COc1ccc(COc2ccc3oc(-c4cccc(C#N)c4)nc3c2)nc1 [3-{5-[(5-methoxypyridin-2-yl)methoxy]-1,3-benzoxazol-2-yl]benzonitrile]
40 | 0.1 to 0.5 µM | Cn1cc(COc2ccc3oc(-c4cccnc4)nc3c2)ncc1=O [1-methyl-5-({[2-(pyridin-3-yl)-1,3-benzoxazol-5-yl]oxy}methyl)-1,2-dihydropyrazin-2-one]
41 | < 0.1 µM | COc1ccc(COc2ccc3oc(-c4cnccn4)nc3c2)nc1 [5-[(5-methoxypyridin-2-yl)methoxy]-2-(pyrazin-2-yl)-1,3-benzoxazole]

Row | SMILES | IC50
42 | COCCn1cc(COc2ccc3oc(-c4ccncc4C#N)cc3c2)cn1 [4-(5-{[1-(2-methoxyethyl)-1H-pyrazol-4-yl]methoxy}-1-benzofuran-2-yl)pyridine-3-carbonitrile] | < 0.1 µM
